Measurements published in patent US20260167692A1, “POLYPEPTIDES AND RELATED SUBSTANCES AGAINST HAIR LOSS AND DERMATITIS, AND USES THEREOF” (SHENZHEN INSTITUTES OF ADVANCED TECHNOLOGY, priority 2023, published 2026).
Where two headings read alike, the source gives them in different places. Where a SMILES comes first, the peptide text is derived from it. Where no end group is shown, it is not given here.

Tests used:
[1] = system: brains, ovaries, uteruses and adrenal glands of female mice; assay: In vivo targeting of polypeptide-ICG/Cy5 probe in female mice (small animal imaging); set-up: species or system mouse; conditions: adult female mice, tail vein injection 100 μL of ICG- or Cy5-labeled polypeptide, imaging after 24 hours, vs control group
Method: Adult female mice were intravenously injected via tail veins with the following: the polypeptide-ICG probe solution prepared in Example 2/Cy5-labeled polypeptide, an ICG solution (2 mM)/control polypeptide (a scrambled, irrelevant polypeptide), and a phosphate buffered saline (PBS). Each mouse received an injection volume of 100 μL. After 24 hours, detection was performed using a small animal imaging instrument.

[2] = system: brain, gonad and adrenal gland tissues of male mice; assay: In vivo targeting of Cy5-labeled polypeptide in male mice (small animal imaging); set-up: species or system mouse; conditions: adult male mice, tail vein injection 100 μL of Cy5-labeled polypeptide, imaging after 24 hours, vs control group
Method: Adult male mice were intravenously injected via tail veins with the following: the Cy5-labeled polypeptide prepared in Example 2, a control polypeptide (a scrambled, irrelevant polypeptide), and a PBS. Each mouse received an injection volume of 100 μL. After 24 hours, detection was performed using a small animal imaging instrument.

[3] = system: human primary dermal papilla cells; assay: Cortisol-induced psychological stress hair loss cell model; type: cell-based; conditions: 1 μM cortisol, 24 hours
Method: A fibroblast medium was used as a medium. […] Expression levels of cellular molecular markers (including 5α-dehydrogenase, GR, AR, CD200, IL-6, BCL2, and BAX) were detected after 24 hours.

GPR158 receptor = molecular target: T1, GPR158 receptor (Homo sapiens, UniProt Q5T848); assay: Binding of Cy5-labeled Ocn49/Ocn19 to HeLa cells highly expressing GPR158; type: cell-based; conditions: Cy5-labeled polypeptide incubated with GPR158-HeLa cells at 4° C., washed with PBS, FIG. 7
T1 construct: expressed in transfected cells; host or cells: HeLa cell line highly expressing GPR158 (GPR158-HeLa)
T1 sequence (Q5T848 24-1215): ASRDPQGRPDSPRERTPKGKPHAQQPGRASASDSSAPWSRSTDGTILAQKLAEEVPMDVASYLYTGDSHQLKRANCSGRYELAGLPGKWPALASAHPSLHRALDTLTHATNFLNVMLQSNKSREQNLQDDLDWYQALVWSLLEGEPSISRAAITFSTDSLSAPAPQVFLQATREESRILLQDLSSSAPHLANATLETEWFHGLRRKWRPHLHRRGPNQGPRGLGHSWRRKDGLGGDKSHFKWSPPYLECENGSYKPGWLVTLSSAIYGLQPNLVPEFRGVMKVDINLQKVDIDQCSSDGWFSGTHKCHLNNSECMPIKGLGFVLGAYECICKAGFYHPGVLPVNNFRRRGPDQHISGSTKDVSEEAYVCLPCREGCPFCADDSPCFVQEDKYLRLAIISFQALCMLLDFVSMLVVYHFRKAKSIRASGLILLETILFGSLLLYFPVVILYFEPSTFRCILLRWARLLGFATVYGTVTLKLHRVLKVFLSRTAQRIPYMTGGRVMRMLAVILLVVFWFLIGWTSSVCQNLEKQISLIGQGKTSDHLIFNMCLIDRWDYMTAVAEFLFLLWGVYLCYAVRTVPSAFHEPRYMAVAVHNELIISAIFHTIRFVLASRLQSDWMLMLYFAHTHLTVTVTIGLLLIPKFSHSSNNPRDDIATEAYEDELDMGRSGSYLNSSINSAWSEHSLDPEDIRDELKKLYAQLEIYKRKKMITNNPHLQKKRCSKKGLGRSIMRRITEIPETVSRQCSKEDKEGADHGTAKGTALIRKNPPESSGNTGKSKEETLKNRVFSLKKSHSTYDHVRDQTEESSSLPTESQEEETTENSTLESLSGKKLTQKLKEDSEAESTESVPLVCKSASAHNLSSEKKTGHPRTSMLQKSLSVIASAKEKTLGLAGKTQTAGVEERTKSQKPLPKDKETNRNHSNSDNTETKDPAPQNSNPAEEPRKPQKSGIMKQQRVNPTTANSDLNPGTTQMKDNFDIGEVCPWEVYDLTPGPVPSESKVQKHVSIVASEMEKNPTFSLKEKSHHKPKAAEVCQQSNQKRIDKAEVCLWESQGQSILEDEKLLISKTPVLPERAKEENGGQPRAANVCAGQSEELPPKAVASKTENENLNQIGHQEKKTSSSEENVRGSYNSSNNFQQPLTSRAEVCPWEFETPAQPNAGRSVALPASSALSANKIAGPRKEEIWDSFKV
Method: The polypeptide prepared in Example 1 was employed in this example, and a binding condition was observed via in vitro culture of the polypeptide with a Hela cell line highly expressing a GPR158 receptor.
(§1) A specific method involved that Cy5-labeled full-length human osteocalcin Ocn49, truncated human osteocalcin Ocn19 (SEQ ID NO.1), and HeLa cells highly expressing GPR158 were incubated at 4° C., and cells were subsequently washed with PBS. Polypeptides incapable of binding to the cells were considered as non-specific ligands, while polypeptides capable of binding to the cells were considered as specifically binding ligands. An interaction between the polypeptides and the receptor was verified accordingly.

male C57BL/6 mice = assay: Androgenetic (seborrheic) hair loss mouse model (DHT); type: in vivo; conditions: 28 days
Method: 7-week-old male C57BL/6 mice were treated with application of DHT (a modeling and experimental cycle of 28 days).
Hair at a telogen phase on 2×2 cm areas of dorsa was removed, and the areas were depilated using a hair removal cream. A DHT solution (0.2%, w/v) was prepared in an ethanol solution (50%, v/v). Mice received topical application of the DHT solution (0.1 mL/cm^2) to the depilated areas, once a day, for 28 consecutive days. Mice in the other group received the polypeptide via oral gavage at a concentration of 0.5 mg/kg/day while applied with the DHT daily.

[4] = system: human primary dermal papilla cells; conditions: 10 nM DHT, 24 hours
Method: A fibroblast medium was used as a medium.
24 hours after serum-starved cells were removed, human primary dermal papilla cells were treated with a high level of androgen by adding 10 nM DHT to a culture medium. Expression levels of cellular molecular markers (including 5α-dehydrogenase, AR, CD200, IL-6, BCL2, BAX, and FABP3) were detected after 24 hours. Homologous polypeptides from different species (the polypeptides from Example 7) were concurrently added for co-culture, and the expression levels of the cellular molecular markers were detected after 24 hours.

[5] = molecular target: T2, human GPR158 receptor (on HeLa cells highly expressing a GPR158 receptor) (human, UniProt Q5T848 24-1215); assay: Cy5-labelled polypeptide incubated at 4 C with HeLa cells highly expressing GPR158, washed with PBS, fluorescence imaging
T2 construct: whole, on cells; also called GPR158-HeLa cells; human GPR158 receptor cells
T2 sequence (looked up): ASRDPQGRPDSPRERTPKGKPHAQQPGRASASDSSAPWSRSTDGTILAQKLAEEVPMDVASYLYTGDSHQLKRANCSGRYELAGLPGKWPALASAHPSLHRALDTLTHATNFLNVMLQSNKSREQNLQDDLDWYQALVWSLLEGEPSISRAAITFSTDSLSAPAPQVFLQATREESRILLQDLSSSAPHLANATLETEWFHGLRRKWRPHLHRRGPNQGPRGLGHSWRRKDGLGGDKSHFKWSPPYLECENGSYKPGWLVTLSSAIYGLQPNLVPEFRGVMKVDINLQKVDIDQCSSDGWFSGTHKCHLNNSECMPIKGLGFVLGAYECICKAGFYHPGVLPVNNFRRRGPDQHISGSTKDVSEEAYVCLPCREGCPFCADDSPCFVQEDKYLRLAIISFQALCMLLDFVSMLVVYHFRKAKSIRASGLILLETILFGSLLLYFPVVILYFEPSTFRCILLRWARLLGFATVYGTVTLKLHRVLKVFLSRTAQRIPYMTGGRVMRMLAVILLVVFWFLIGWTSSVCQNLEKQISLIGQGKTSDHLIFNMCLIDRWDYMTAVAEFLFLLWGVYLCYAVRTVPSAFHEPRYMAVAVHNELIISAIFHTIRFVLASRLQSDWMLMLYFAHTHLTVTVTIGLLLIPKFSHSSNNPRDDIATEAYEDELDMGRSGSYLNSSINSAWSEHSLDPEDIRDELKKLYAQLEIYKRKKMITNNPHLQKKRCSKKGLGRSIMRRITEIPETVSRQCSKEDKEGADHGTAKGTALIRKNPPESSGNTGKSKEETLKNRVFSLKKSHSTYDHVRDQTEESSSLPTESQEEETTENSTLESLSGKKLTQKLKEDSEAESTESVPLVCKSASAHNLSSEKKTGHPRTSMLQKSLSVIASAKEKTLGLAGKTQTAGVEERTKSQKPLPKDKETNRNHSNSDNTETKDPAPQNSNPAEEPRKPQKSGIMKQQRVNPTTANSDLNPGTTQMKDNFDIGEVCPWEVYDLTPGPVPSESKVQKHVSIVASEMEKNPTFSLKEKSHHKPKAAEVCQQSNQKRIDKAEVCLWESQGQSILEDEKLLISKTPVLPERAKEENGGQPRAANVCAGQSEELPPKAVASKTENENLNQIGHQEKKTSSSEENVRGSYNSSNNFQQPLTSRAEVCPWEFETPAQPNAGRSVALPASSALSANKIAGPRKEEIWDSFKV
Method: as §1

[6] = topical DHT 0.2% w/v, 0.1 mL/cm^2 once a day

CC(C)C[C@H](NC(=O)[C@@H](N)Cc1ccc(O)cc1)C(=O)NCC(=O)N[C@@H](C)C(=O)N[C@@H](CO)C(=O)N[C@H](C(=O)N1CCC[C@H]1C(=O)N[C@@H](CO)C(=O)N1CCC[C@H]1C(=O)N[C@@H](CC(=O)O)C(=O)N1CCC[C@H]1C(=O)N[C@@H](CC(C)C)C(=O)N[C@@H](CCC(=O)O)C(=O)N1CCC[C@H]1C(=O)N[C@H](C(=O)O)[C@@H](C)O)C(C)C [mO15, YLGASVPSPDPLEPT] (H-YLGASVPSPDPLEPT-OH; N-terminus and C-terminus assumed)
fluorescence signals in brain tissues (brain entry) [1]: enters the brains | localization and binding in hypothalamus, ovary and uterus, and adrenal gland tissues (fluorescence signals) [1]: specific localization and binding capabilities | fluorescence signals in brain tissues (brain entry) [2]: enters the brains | localization and binding in brain, gonad (testis, epididymis) and adrenal gland tissues (fluorescence signals) [2]: specific localization and binding capabilities

C[C@]12CCC(=O)C=C1CC[C@@H]1[C@@H]2[C@@H](O)C[C@@]2(C)[C@H]1CC[C@]2(O)C(=O)CO [cortisol]
apoptosis of hair follicle cells (Caspase-3, BCL2, BAX) [3]: increased | expression level of hair follicle regression marker MMP-9 [3]: increased | expression levels of STIP1 and inflammatory factors (TGF-β1 and IL-6) [3]: increased | expression levels of glucocorticoid receptor (GR), androgen receptor (AR), and 5α-reductase [3]: significantly increased | expression levels of hair growth marker GAS6 and hair follicle stem cell markers CD200 and CD133 [3]: decreased

YLYQWLGAPVPYPDPLEPR (listed as Homo sapiens) [Ocn19, human osteocalcin-derived peptide (truncated human osteocalcin)]
binding to the GPR158 receptor (GPR158 receptor): capable of binding to the GPR158 receptor | internalization of the GPR158 receptor (GPR158 receptor): induces internalization of the GPR158 receptor

Ocn49: full-length human osteocalcin (YLYQWLGAPVPYPDPLEPRREVCELNPDCDELADHIGFQEAYRRFYGPV)
binding to the GPR158 receptor (GPR158 receptor): capable of binding to the GPR158 receptor | internalization of the GPR158 receptor (GPR158 receptor): induces internalization of the GPR158 receptor

C[C@]12CCC(=O)C[C@@H]1CC[C@@H]1[C@@H]2CC[C@]2(C)[C@@H](O)CC[C@@H]12 [DHT, dihydrotestosterone]
expression level of AR in cervicodorsal skins (immunofluorescence) (male C57BL/6 mice; topical DHT 0.2% w/v once a day, FIG. 13): significantly increased | genes related to lipases, adipocyte differentiation, and lipoproteins in cervicodorsal skins (male C57BL/6 mice; topical DHT 0.2% w/v once a day, FIG. 14): significantly increased | skin expression level of β-catenin gene (male C57BL/6 mice; [6]): decrease | skin expression levels of TGF-β, DKK1, IL-6, and AR genes (male C57BL/6 mice; [6]): increase | apoptosis of hair follicle cells (Caspase-3, BCL2, BAX) [4]: increased | expression level of hair follicle regression marker MMP-9 [4]: increased | expression level of hair follicle stem cell marker CD200 [4]: decreased | expression levels of androgen receptor (AR), 5α-reductase, androgen synthesis-related enzymes (3βHSD and 17βHSD3) [4]: significantly increased | expression levels of fatty acid-binding protein FABP3 and adipogenic differentiation factor PPARγ [4]: increased | expression levels of inflammatory factors (TGF-β, TNF-α, and IL-6) [4]: increased

YLYQWLGAPVPYPDPLEPRREVCELNPDCDELADHIGFQEAYRRFYGPV (ligand, UniProt P02818 52-100, looked up, ends and bridges not checked; also: Cy5 label, site not given here, mature; also called human Ocn49) [full-length human osteocalcin Ocn49]
binding result [5]: binds

YLYQWLGAPVPYPDPLEPR (not fully specified, also called human Ocn19) [truncated human osteocalcin Ocn19 (human osteocalcin-derived peptide)]
binding result [5]: binds
